Target: T1, skeletal myofibrils (Rabbit Psoas), myosin ATPase activity
T1 construct: Rabbit Psoas Prep 11 (0.25 mg/mL)
Test: Skeletal Myofibril ATPase Assay
Type: biochemical
Details: skeletal myofibrils (Rabbit Psoas 0.25 mg/mL), PK/LDH-coupled NADH absorbance at 340 nm
Protocol: Overview: Myosin ATPase activity is assessed by using a coupled reaction system, in which ADP generated by the myosin ATPase function is coupled to the disappearance of NADH through the pyruvate kinase/lactate dehydrogenase (PK-LDH) system. Myosin ATPase activity produces ADP, which is used as a substrate for PK to produce pyruvate and regenerate ATP. The pyruvate is then used as a substrate by LDH to oxidize NADH to NAD+. The rate of the reaction is monitored through the time-dependent disappearance of NADH using absorbance at 340 nm. Inhibition of ATPase activity by the assayed compounds is indicated by a reduced rate of NADH loss, relative to vehicle-treated controls, over the experimental time window. To assess the selectivity of the assayed compounds for skeletal myofibrils, the compounds are counter-screened in cardiac myofibrils.
Materials: The following stock solutions and reagents were used in the Skeletal Myofibril ATPase Assay:
Stock Solutions of pCa buffer. Combine PIPES, CaCl2, and EGTA solutions with 70 mL of water. Adjust pH to 7.0 and bring final volume to 100 mL.
Buffer A & Buffer B. Buffers were stored on ice until use.
Skeletal Myofibril ATPase Assay Procedure: BSA, ATP, NADH, PEP, and DTT solutions were thawed at room temperature, then transferred to ice. Pellet-frozen myofibrils were transferred with approximately twice the required volume into a sufficiently large tube and capped. Myofibrils were thawed by rolling in a water bath for approximately 15 min at room temperature and cooled on ice. Buffers A and B were prepared by adjusting volumes as necessary for required number of wells and stored on ice. 0.5 μL of the compounds to be assayed were added into wells. 25 μL of Buffer A was dispensed into the wells, followed by 25 μL of Buffer B. The wells were measured for absorbance at 340 nm, using a kinetic protocol in which the wells are read every 1.5-2 min for 45 min. The slope of the data was approximated by subtracting the minimum absorbance value from the maximum value for each well. This was accomplished either in the SoftMax Pro software or in a spreadsheet program such as Excel. Using GraphPad Prism 8.0, the data was normalized by assigning a value of 100% to the 1% DMSO vehicle wells. Typically, a normalized 0% value was simply assigned to a (Max−Min) value of 0. The normalized data was fit to a Four Parameter Logistic sigmoidal equation, constraining the bottom to be 0 or greater. Compounds of Table 1 to 4 were tested and results of the assay appear in Table 5 herein. A=IC50 is less than or equal to 10 μM; B=IC50 is greater than 10 μM and less than 100 μM; C=IC50 is greater than 100 μM.

Structure (SMILES) | IC50
NC(=O)c1ccc(-c2ccc(=O)n(Cc3ccc(Cl)cc3)n2)cc1 [Compound 114, 4-(1-(4-chlorobenzyl)-6-oxo-1,6-dihydropyridazin-3-yl)benzamide] | 10 to 100 µM
Cc1ccc(Cn2nc(-c3ccc(Cl)cc3)ccc2=O)cc1 [Compound 311, 6-(4-chlorophenyl)-2-(4-methylbenzyl)pyridazin-3(2H)-one] | < 10 µM
COc1ccc(Cn2nc(-c3ccc(Br)cc3)ccc2=O)cc1 [Compound 237, 6-(4-bromophenyl)-2-(4-methoxybenzyl)pyridazin-3(2H)-one] | < 10 µM
O=c1ccc(-c2cnc(OCC(F)(F)F)nc2)nn1Cc1ccc(F)cc1F [Compound 39, 2-(2,4-difluorobenzyl)-6-(2-(2,2,2-trifluoroethoxy)pyrimidin-5-yl)pyridazin-3(2H)-one] | < 10 µM
CN(C)c1ccc(-c2ccc(=O)n(Cc3ccc(Cl)cc3)n2)cn1 [Compound 27, 2-(4-chlorobenzyl)-6-(6-(dimethylamino)pyridin-3-yl)pyridazin-3(2H)-one] | < 10 µM
COc1ccc(-c2ccc(=O)n(Cc3ccc(Cl)cc3)n2)cn1 [Compound 17, 2-(4-chlorobenzyl)-6-(6-methoxypyridin-3-yl)pyridazin-3(2H)-one] | < 10 µM
O=c1ccc(-c2cnc(OC(F)F)nc2)nn1Cc1ccc(Cl)cc1 [Compound 10, 2-(4-chlorobenzyl)-6-(2-(difluoromethoxy)pyrimidin-5-yl)pyridazin-3(2H)-one] | < 10 µM
O=c1ccc(-c2ccc(OC(F)(F)F)cc2)nn1Cc1ccc(Cl)cc1 [Compound 105, 2-(4-chlorobenzyl)-6-(4-(trifluoromethoxy)phenyl)pyridazin-3(2H)-one] | < 10 µM
O=c1ccc(-c2cnc(OCC(F)(F)F)nc2)nn1C1(c2ccccc2)CC1 [Compound 54, 2-(1-phenylcyclopropyl)-6-(2-(2,2,2-trifluoroethoxy)pyrimidin-5-yl)pyridazin-3(2H)-one] | < 10 µM
O=c1ccc(-c2cnc(OCC(F)(F)F)nc2)nn1Cc1ccc(F)cc1 [Compound 37, 2-(4-fluorobenzyl)-6-(2-(2,2,2-trifluoroethoxy)pyrimidin-5-yl)pyridazin-3(2H)-one] | < 10 µM
CC1Cc2cc(-c3ccc(=O)n(Cc4ccc(Cl)cc4)n3)ccc2O1 (centres unmarked) [Compound 109, 2-(4-chlorobenzyl)-6-(2-methyl-2,3-dihydrobenzofuran-5-yl)pyridazin-3(2H)-one] | < 10 µM
Cc1ccccc1Cn1nc(-c2ccc(Cl)cc2)ccc1=O [Compound 308, 6-(4-chlorophenyl)-2-(2-methylbenzyl)pyridazin-3(2H)-one] | < 10 µM
O=c1ccc(-c2cnc(OCC(F)(F)F)nc2)nn1Cc1ccc(F)c(F)c1 [Compound 42, 2-(3,4-difluorobenzyl)-6-(2-(2,2,2 trifluoroethoxy)pyrimidin-5-yl)pyridazin-3(2H)-one] | < 10 µM
O=c1ccc(-c2cnc(OCC(F)(F)F)nc2)nn1Cc1cc(Cl)ccc1O [Compound 50, 2-(5-chloro-2-hydroxybenzyl)-6-(2-(2,2,2-trifluoroethoxy)pyrimidin-5-yl)pyridazin-3(2H)-one] | < 10 µM
Cn1ncc2cc(-c3ccc(=O)n(Cc4ccc(Cl)cc4)n3)ccc21 [Compound 119, 2-(4-chlorobenzyl)-6-(1-methyl-1H-indazol-5-yl)pyridazin-3(2H)-one] | > 100 µM

Other lines, results leading:

IC50 | Structure (SMILES)
< 10 µM | Cc1ccc(-c2ccc(=O)n(Cc3ccc(Cl)cc3)n2)cc1 [Compound 301, 2-(4-chlorobenzyl)-6-(p-tolyl)pyridazin-3(2H)-one]
< 10 µM | O=c1ccc(-c2cnc(OCCOC(F)(F)F)nc2)nn1Cc1ccc(Cl)cc1 [Compound 2, 2-(4-chlorobenzyl)-6-(2-(2-(trifluoromethoxy)ethoxy)pyrimidin-5-yl)pyridazin-3(2H)-one]
< 10 µM | O=c1ccc(-c2cnc(OCC(F)(F)F)nc2)nn1Cc1ccccc1O [Compound 49, 2-(2-hydroxybenzyl)-6-(2-(2,2,2-trifluoroethoxy)pyrimidin-5-yl)pyridazin-3(2H)-one]
< 10 µM | COCCOc1ccc(-c2ccc(=O)n(Cc3ccc(Cl)cc3)n2)cc1 [Compound 106, 2-(4-chlorobenzyl)-6-(4-(2-methoxyethoxy)phenyl)pyridazin-3(2H)-one]
< 10 µM | O=c1ccc(-c2cnc(OCC(F)(F)F)nc2)nn1Cc1cccc(Cl)c1 [Compound 34, 2-(3-chlorobenzyl)-6-(2-(2,2,2-trifluoroethoxy)pyrimidin-5-yl)pyridazin-3(2H)-one]
> 100 µM | O=c1ccc(-c2ccc(Cl)cc2)nn1Cc1ccc(C(F)(F)F)cc1 [Compound 305, 6-(4-chlorophenyl)-2-(4-(trifluoromethyl)benzyl)pyridazin-3(2H)-one]
> 100 µM | C[C@@H](c1ccccc1)n1nc(-c2ccc(Cl)cc2)ccc1=O [Compound 315, (S)-6-(4-chlorophenyl)-2-(1-phenylethyl)pyridazin-3(2H)-one]
< 10 µM | O=c1ccc(-c2cnc(N3CCCC3C(F)(F)F)nc2)nn1Cc1ccc(F)cc1F (centres unmarked) [Compound 30, 2-(2,4-difluorobenzyl)-6-(2-(2-(trifluoromethyl)pyrrolidin-1-yl)pyrimidin-5-yl)pyridazin-3(2H)-one]
< 10 µM | CCOc1ccc(-c2ccc(=O)n(Cc3ccc(Cl)cc3)n2)cc1 [Compound 213, 2-(4-chlorobenzyl)-6-(4-ethoxyphenyl)pyridazin-3(2H)-one]
< 10 µM | O=c1ccc(-c2ccc3c(c2)CCO3)nn1Cc1ccc(Cl)cc1 [Compound 112, 2-(4-chlorobenzyl)-6-(2,3-dihydrobenzofuran-5-yl)pyridazin-3(2H)-one]
< 10 µM | O=c1ccc(-c2cnc(OCC(F)(F)F)nc2)nn1Cc1ccccc1 [Compound 31, 2-benzyl-6-(2-(2,2,2-trifluoroethoxy)pyrimidin-5-yl)pyridazin-3(2H)-one]
< 10 µM | O=c1ccc(-c2ccc(OCC(F)F)cc2)nn1Cc1ccc(Cl)cc1 [Compound 102, 2-(4-chlorobenzyl)-6-(4-(2,2-difluoroethoxy)phenyl)pyridazin-3(2H)-one]
< 10 µM | [2H]C([2H])(c1ccccc1)n1nc(-c2cnc(OCC(F)(F)F)nc2)ccc1=O [Compound 52, 2-(phenylmethyl-d2)-6-(2-(2,2,2-trifluoroethoxy)pyrimidin-5-yl)pyridazin-3(2H)-one]
< 10 µM | O=c1ccc(-c2ccc(OC(F)F)nc2)nn1Cc1ccc(Cl)c(F)c1 [Compound 15, 2-(4-chloro-3-fluorobenzyl)-6-(6-(difluoromethoxy)pyridin-3-yl)pyridazin-3(2H)-one]
10 to 100 µM | O=c1ccc(-c2ccc(F)cc2)nn1Cc1ccccc1F [Compound 243, 2-(2-fluorobenzyl)-6-(4-fluorophenyl)pyridazin-3(2H)-one]
10 to 100 µM | COc1ccc(Cn2nc(-c3ccc(F)cc3)ccc2=O)cc1 [Compound 240, 6-(4-fluorophenyl)-2-(4-methoxybenzyl)pyridazin-3(2H)-one]
< 10 µM | O=c1ccc(-c2cnc(OCC(F)(F)F)nc2)nn1Cc1cc(F)cc(F)c1 [Compound 43, 2-(3,5-difluorobenzyl)-6-(2-(2,2,2-trifluoroethoxy)pyrimidin-5-yl)pyridazin-3(2H)-one]
> 100 µM | NC(=O)c1ccc(Cn2nc(-c3ccc(OC(F)F)cc3)ccc2=O)cc1 [Compound 116, 4-((3-(4-(difluoromethoxy)phenyl)-6-oxopyridazin-1(6H)-yl)methyl)benzamide]
< 10 µM | O=c1ccc(-c2ccc(Cl)cc2)nn1Cc1cccc(F)c1 [Compound 317, 6-(4-chlorophenyl)-2-(3-fluorobenzyl)pyridazin-3(2H)-one]
< 10 µM | O=c1ccc(-c2ccc(Cl)nc2)nn1Cc1ccc(Cl)cc1 [Compound 304, 2-(4-chlorobenzyl)-6-(6-chloropyridin-3-yl)pyridazin-3(2H)-one]
> 100 µM | COc1ccc(Cn2nc(-c3ccc(SC)cc3)ccc2=O)cc1 [Compound 201, 2-(4-methoxybenzyl)-6-(4-(methylthio)phenyl)pyridazin-3(2H)-one]
< 10 µM | CC1CCC(=O)N1c1ncc(-c2ccc(=O)n(Cc3ccc(Cl)cc3)n2)cn1 (centres unmarked) [Compound 47, 2-(4-chlorobenzyl)-6-(2-(2-methyl-5-oxopyrrolidin-1-yl)pyrimidin-5-yl)pyridazin-3(2H)-one]
10 to 100 µM | CNC(=O)c1ccc(-c2ccc(=O)n(Cc3ccc(Cl)cc3)n2)cc1 [Compound 113]
